Values quoted from earlier work in patent publication US20100158923A1, “REDUCING POLYGLUTAMINE-BASED AGGREGATION” (Northwestern University, priority 2003, published 2010).
One block for each compound: values may come before it.

Key:
[1] = molecular target: human SST2 (Homo sapiens, UniProt P30874)
[2] = system: GH release; settings: administered orally and parenterally
[3] = system: IGF-1 levels; settings: administered subcutaneously
[4] = system: GH secretion

human SST2, sequence (P30874 whole entry): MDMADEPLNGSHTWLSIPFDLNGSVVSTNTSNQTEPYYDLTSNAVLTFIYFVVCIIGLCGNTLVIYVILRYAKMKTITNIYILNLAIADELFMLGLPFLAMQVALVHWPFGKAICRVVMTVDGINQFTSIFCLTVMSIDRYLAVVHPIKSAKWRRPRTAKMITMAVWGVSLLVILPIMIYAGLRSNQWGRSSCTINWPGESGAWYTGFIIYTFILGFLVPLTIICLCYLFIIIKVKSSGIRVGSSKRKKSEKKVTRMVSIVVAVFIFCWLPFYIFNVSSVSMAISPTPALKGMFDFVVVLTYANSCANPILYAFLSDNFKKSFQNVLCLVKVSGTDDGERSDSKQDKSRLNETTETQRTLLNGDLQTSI

selectivity ([1]; SST2 binding, comparison receptors not stated): highly selective
Kd ([1]; binding to human SST2, read-out: apparent Kd): 0.01 nM
Compound: CC(C)(C)OC(=O)[C@H](CCCCN)NC(=O)[C@@H](Cc1c[nH]c2ccccc12)NC(=O)N1CCC(n2c(=O)[nH]c3ccccc32)CC1 [L-054,522]

Compound: CC(C)(N)C(=O)N[C@H](COCc1ccccc1)C(=O)N1CCC2(CC1)CN(S(C)(=O)=O)c1ccccc12 [MK-0677]
GH-releasing effects [2]: potent GH-releasing effects

Compound: Pegvisomant: modified human GH in which nine amino acids have been replaced, with polyethylene glycol polymers; GH receptor antagonist
effect on IGF-1 levels [3]: dose dependent reduction

Compound: [N-acetyl-Tyr^1,D-Arg^2] GHRH^1-29NH2 [standard GHRH antagonist]
effect on human GH secretory response to exogenous GHRH ([4]; response to exogenous GHRH): inhibits
effect on spontaneous GH secretion ([4]; spontaneous GH secretion): lowers
